Measured values as given in patent US9388209B2, “2′, 3′-dideoxy-5-fluorouridine derivatives, a process for the manufacture thereof and application thereof” (ADAM MICKIEWICZ UNIVERSITY, priority 2014, dated 2016).
Converted amounts (≈) assume the structure as drawn. “And” between values parts separate entries of the source, which are not always exact repeats. Equal entries are not always repeated.

How the values were obtained:
[1] = test system: L1210 cancer in mice induced by MLV retroviruses; details: literature (Colla et al. 1985); cited from earlier work
sarcoma 180 = details: literature (Lin et al. 1983); cited from earlier work
Hep-G2 (hepatic cancer) = experiment: Cytotoxicity test with sulphorhodamine B, Hep-G2 line; type: cell-based; details: for IC50: Homo sapiens, HepG2, 72 hours incubation, average of three independent determinations, read-out: Cytotoxic activity IC50 Hep-G2 (hepatic cancer); for fold higher activity than AddFU: Hep-G2, ratio of IC50
From the text: The values are average results of three independent determinations.

HeLa (cervical cancer) [2] = experiment: Cytotoxicity test with sulphorhodamine B, HeLa line; details: for IC50: Homo sapiens, 72 h, read-out: Cytotoxic activity IC50 HeLa (cervical cancer), 72 hours incubation, average of three independent determinations
Protocol: (§1) Cytotoxicity tests were carried out using a standard procedure with sulphorhodamine B. They involved incubation of the cancer cell lines in the logarithmic growth phase for 72 hours with the compound tested and, subsequently, spectrophotometric determination of the degree of cell growth inhibition using adsorption of a dye (sulphorhodamine B) which binds cellular proteins.
(§2) Cells of the cell line tested in the logarithmic growth phase were seeded onto 24-well plates in a quantity of 20,000 cells/2 mL of the growth medium per well and, subsequently, incubated in an incubator at 37° C., in the 5% CO2 atmosphere for 24 hours.
(§3) Solutions of the test compounds were prepared in DMSO in the following concentration range: 0.05; 0.1; 0.5; 1; 5; 10; 50; 100; 500 μM.
(§4) The cells of the lines tested were treated with the solutions of the test compounds in a laminar-flow chamber which ensured sterile working conditions according to the following procedure: the first three wells were used as a blank: they contained 20 μL of DMSO only; successive solutions of the test compound were added to subsequent wells (20 μL), starting with the lowest concentration (three wells for each concentration level). Subsequently, the plates were placed in an incubator for 72 hours.
(§5) After the end of incubation, the adhered cells were fixed by adding 500 μL of cold (4° C. 50% trichloroacetic acid (TCA) and incubated at 4° C. for 1 hour. Subsequently, each well was rinsed with sterile water and dried. The operation was repeated five times. The fixed cells were stained for 30 minutes by adding 500 μL of 0.4% of a dye solution (sulphorhodamine B) dissolved in 1% acetic acid. Any unbound dye was removed by decanting it from the plate, and the cells were washed 4 times with 1% acetic acid. Subsequently, the plates were dried in air for approx. 5 minutes. Any unbound dye was dissolved by adding 1500 μL of 10 mM Tris-base buffer (trishydroxymethylaminomethane) to each well and shaken using an orbital shaker for 5 minutes. Subsequently, 200 μL of solution from each well was transferred to each of two wells on a new 96-well plate and absorption of the solutions was determined spectrophotometrically at a wavelength of 490-530 nm using a plate reader. Percentage inhibition of cell growth by the test compound was calculated assuming the absorption of the control solution as 100%.
(§6) Depending on the type of the cell line, the following growth media were used: • the MCF-7 line was grown in Dulbecco's Modified Eagle's Medium (DME) from Sigma (cat. no. D5796), • the HeLa and Hep-G2 lines were grown in PPMI-1640 Medium from Sigma (cat. no. R8758).

MCF-7 (breast cancer) [3] = experiment: Cytotoxicity test with sulphorhodamine B, MCF-7 line; details: for IC50: Homo sapiens, MCF7, 72 h, read-out: Cytotoxic activity IC50 MCF-7 line (breast cancer), 72 hours incubation, average of three independent determinations
Protocol: as §1, §2, §3, §4, §5, §6

HeLa (cervical cancer) [4] = details: for Cytotoxic activity IC50 HeLa (cervical cancer): human, 72 h
Protocol: as §1, §2, §3, §4, §5, §6

MCF-7 (breast cancer) [5] = details: for Cytotoxic activity IC50 MCF-7 line (breast cancer): human, 72 h
Protocol: as §1, §2, §3, §4, §5, §6

SMILES | IC50 (Hep-G2 (hepatic cancer)) | IC50 (HeLa (cervical cancer) [2]) | IC50 (MCF-7 (breast cancer) [3]) | cytotoxic activity in words, cervical cancer cells (HeLa line) (HeLa (cervical cancer) [4]) | fold higher activity than AddFU (Hep-G2 (hepatic cancer)) | also measured
[N-]=[N+]=N[C@H]1C[C@H](n2cc(F)c(=O)[nH]c2=O)O[C@@H]1CO [3′-azido-2′,3′-dideoxy-5-fluorouridine, reference compound] | 16 µg/mL and 59 µM | 3 µg/mL and 11.1 µM | 2.2 µg/mL and 8.11 µM |  |  | IC50 against L1210 cancer [1]: 34 µg/mL (≈ 125 µM); activity against sarcoma 180 in vitro, in words (sarcoma 180): weak activity
O=c1[nH]c(=O)n([C@H]2C[C@H](O)[C@@H](CO)O2)cc1F [5-fluoro-2′-deoxyuridine, reference compound] |  | 3.2 µg/mL and 13 µM | 2.81 µg/mL and 11.4 µM |  |  | 
O=c1[nH]c(=O)n(C2CC(n3cc(C4CN5CCC4C[C@H]5[C@H](O)c4ccnc5ccccc45)nn3)C(CO)O2)cc1F (stereo partly drawn) [CD5FdU, 5-Fluoro-1-(5-hydroxymethyl-4-{4-[6-(hydroxy-quinolin-4-yl-methyl)-1-aza-bicyclo[2.2.2]oct-3-yl]-[1,2,3]triazol-1-yl}-tetrahydro-furan-2-yl)-1H-pyrimidine-2,4-dione] |  | 7 µg/mL and 12.4 µM | 6.9 µg/mL and 12.2 µM | medium active |  | 
O=c1[nH]c(=O)n(C2CC(n3cc(C4CN5CCC4C[C@@H]5[C@@H](O)c4ccnc5ccccc45)nn3)C(CO)O2)cc1F (stereo partly drawn) [CN5FdU, 5-Fluoro-1-(5-hydroxymethyl-4-{4-[6-(hydroxy-quinolin-4-yl-methyl)-1-aza-bicyclo[2.2.2]oct-3-yl]-[1,2,3]triazol-1-yl}-tetrahydro-furan-2-yl)-1H-pyrimidine-2,4-dione] |  | 7.9 µg/mL and 14 µM | 7 µg/mL and 12.4 µM | medium active |  | 
C=CC1C[N@@]2CCC1C[C@H]2[C@H](OCc1cn(C2CC(n3cc(F)c(=O)[nH]c3=O)OC2CO)nn1)c1ccnc2ccccc12 (stereo partly drawn) [PCD5FdU, 5-Fluoro-1-(5-hydroxymethyl-4-{4-[quinolin-4-yl-(5-vinyl-1-aza-bicyclo[2.2.2]oct-2-yl)-methoxymethyl]-[1,2,3]triazol-1-yl}-tetrahydrofuran-2-yl)-1H-pyrimidine-2,4-dione] |  | 21.4 µg/mL and 35.5 µM | 13 µg/mL and 21.5 µM | medium active |  | 
C=CC1C[N@@]2CCC1C[C@@H]2C(OCc1cn(C2CC(n3cc(F)c(=O)[nH]c3=O)OC2CO)nn1)c1ccnc2ccccc12 (stereo partly drawn) [PCN5FdU, 5-Fluoro-1-(5-hydroxymethyl-4-{4-[quinolin-4-yl-(5-vinyl-1-aza-bicyclo[2.2.2]oct-2-yl)-methoxymethyl]-[1,2,3]triazol-1-yl}-tetrahydrofuran-2-yl)-1H-pyrimidine-2,4-dione] |  | 27.6 µg/mL and 45.7 µM | 27.2 µg/mL and 45.1 µM | medium active |  | 
C=CC1C[N@@]2CCC1C[C@@H]2[C@@H](OCc1cn(C2CC(n3cc(F)c(=O)[nH]c3=O)OC2CO)nn1)c1ccnc2ccc(OC)cc12 (stereo partly drawn) [PQD5FdU, 5-Fluoro-1-(5-hydroxymethyl-4-{4-[(6-methoxyquinolin-4-yl)-(5-vinyl-1-aza-bicyclo[2.2.2]oct-2-yl)-methoxymethyl]-[1,2,3]triazol-1-yl}-tetrahydrofuran-2-yl)-1H-pyrimidine-2,4-dione] | 6 µg/mL and 9.47 µM | 2.8 µg/mL and 4.42 µM | 2.9 µg/mL and 4.58 µM |  | more than twice as high | cytotoxic activity in words, breast cancer cells (MCF-7 (breast cancer) [5]): medium active
C=CC1C[N@@]2CCC1C[C@H]2[C@H](OCc1cn(C2CC(n3cc(F)c(=O)[nH]c3=O)OC2CO)nn1)c1ccnc2ccc(OC)cc12 (stereo partly drawn) [PQN5FdU, 5-Fluoro-1-(5-hydroxymethyl-4-{4-[(6-methoxyquinolin-4-yl)-(5-vinyl-1-aza-bicyclo[2.2.2]oct-2-yl)-methoxymethyl]-[1,2,3]triazol-1-yl}-tetrahydrofuran-2-yl)-1H-pyrimidine-2,4-dione] | 6.2 µg/mL and 9.78 µM | 1.6 µg/mL to 2.8 µg/mL and 3.16 µM | 0.98 µg/mL to 1.5 µg/mL and 2.37 µM |  | more than twice as high | Cytotoxic activity IC50 MCF-7 line (breast cancer) (MCF-7 (breast cancer) [5]): 1.5 µg/mL; Cytotoxic activity IC50 HeLa (cervical cancer) (HeLa (cervical cancer) [4]): 2.0 µg/mL
COc1ccc2nccc([C@H](O)[C@H]3CC4CC[N@]3CC4c3cn(C4CC(n5cc(F)c(=O)[nH]c5=O)OC4CO)nn3)c2c1 (stereo partly drawn) [QD5FdU, 5-Fluoro-1-[4-(4-{6-[hydroxy-(6-methoxyquinolin-4-yl)-methyl]-1-aza-bicyclo[2.2.2]oct-3-yl}-[1,2,3]triazol-1-yl)-5-hydroxymethyl-tetrahydro-furan-2-yl]-1H-pyrimidine-2,4-dione] |  | 1.6 µg/mL to 2.8 µg/mL and 2.7 µM | 0.98 µg/mL to 1.5 µg/mL and 1.65 µM |  |  | Cytotoxic activity IC50 MCF-7 line (breast cancer) (MCF-7 (breast cancer) [5]): 0.98 µg/mL; Cytotoxic activity IC50 HeLa (cervical cancer) (HeLa (cervical cancer) [4]): 1.6 µg/mL
COc1ccc2nccc(C(O)[C@@H]3CC4CCN3CC4c3cn(C4CC(n5cc(F)c(=O)[nH]c5=O)OC4CO)nn3)c2c1 (stereo partly drawn) [QN5FdU, 5-Fluoro-1-[4-(4-{6-[hydroxy-(6-methoxyquinolin-4-yl)-methyl]-1-aza-bicyclo[2.2.2]oct-3-yl}-[1,2,3]triazol-1-yl)-5-hydroxymethyl-tetrahydro-furan-2-yl]-1H-pyrimidine-2,4-dione] | 3.8 µg/mL and 6.4 µM | 0.16 µg/mL and 270 nM | 0.16 µg/mL and 270 nM |  | 4 fold | fold higher activity than 5FdU (HeLa (cervical cancer) [2]; ratio of IC50): more than 20 fold; fold higher activity than AddFU (HeLa (cervical cancer) [2]; ratio of IC50): more than 18 fold; fold higher activity than 5FdU (MCF-7 (breast cancer) [3]; MCF-7, ratio of IC50): more than 17.5 fold; fold higher activity than AddFU (MCF-7 (breast cancer) [3]; MCF-7, ratio of IC50): more than 13 fold
